Tested on: Escherichia coli ATCC 25922
Experiment: Minimum inhibitory concentration (MIC), CLSI broth micro-dilution, E. coli
Type: cell-based
Details: Escherichia coli, ATCC25922, 22 h, Table 6, cation adjusted Mueller Hinton Broth + 0.002% Tween-80, 35° C.
Procedure: In vitro antimicrobial activity of each compound was determined by measuring minimal inhibitor concentrations (MICs) using the broth micro-dilution technique as approved by the Clinical and Laboratory Standards Institute (CLSI) (Methods for Dilution Antimicrobial Susceptibility Tests for Bacteria that Grow Aerobically; Approved Standard-Eighth Edition. CLSI document M07-A8. Wayne, PA: Clinical and Laboratroy Standards; 2009). Antibacterial activity was measure against two strains of bacteria: a Methicillin Resistant Staphylococcus aureus strain USA 200, (S. aureus) and Escherichia coli ATCC 25922 (E. coli), a clinically relevant Gram-negative strain. Cells were inoculated onto plates of Trypyticase Soy Agar or Luria Agar respectively and grown at 35° C. for 20 hours. Inocula suspensions were prepared by scraping cells into 1 mL of testing media (cation adjusted Mueller Hinton Broth supplemented with 0.002% v/v Tween-80) and diluting to a final OD600nm of 0.01.
Test compounds were prepared in DMSO at a concentration of 10 mg/mL. In protocol 1, the compound stocks were diluted into testing media at a concentration of 64 µg/ml and serial 2-fold dilutions were made in the same media, in 96-well U bottom microtiter dishes, for a total of 10 compound concentrations. In protocol 2, the compound stocks were diluted into testing media at a concentration of 4 µg/mL and serial 2-fold dilutions were made in the same media, in 96-well U bottom microtiter dishes, for a total of 10 compound concentrations. In protocol 3, compound stocks were diluted into testing media at a concentration of 0.5 μg/mL, with serial 2-fold dilutions conducted as described above. In protocol 4, compound stocks were diluted into testing media at a concentration of […], with serial 2-fold dilutions conducted as described above. Inocula suspensions were added to the 2-fold serial dilutions of test compounds to a final density of GD OD600nm of 0.0005 and incubated at 35° C. for 22 hours.

| Structure (SMILES) | MIC |
| --- | --- |
| CCCCOc1c(F)c(F)c(-c2nc(C)c(C(=O)N[C@@H](CCN)C(=O)N(C)[C@@H]3C(=O)N[C@@H](C)C(=O)N[C@H](C(=O)NCC#N)Cc4ccc(OCCN)c(c4)-c4cc3ccc4OCCN)c(C)n2)c(F)c1F (racemic) [Compound 351, rac-(8S,11S,14S)-3,18-bis(2-aminoethoxy)-N-(cyanomethyl)-11-methyl-14-[methyl-[rac-(2S)-4-amino-2-[[2-(4-butoxy-2,3,5,6-tetrafluoro-phenyl)-4,6-dimethyl-pyrimidine-5-carbonyl]amino]butanoyl]amino]-10,13-dioxo-9,12-diazatricyclo[13.3.1.12,6]icosa-1(18),2(20),3,5,15(19),16-hexaene-8-carboxamide] | 0.25 µM |
| Cc1nc(-c2ccc(OCCCCC(C)(C)C)cc2)nc(C)c1C(=O)N[C@@H](CCN)C(=O)N(C)[C@@H]1C(=O)N[C@@H](C)C(=O)N[C@H](C(=O)NCC#N)Cc2ccc(OCCN)c(c2)-c2cc1ccc2OCCN (racemic) [Compound 357, rac-(8S,11S,14S)-3,18-bis(2-aminoethoxy)-N-(cyanomethyl)-11-methyl-14-[methyl-[rac-(2S)-4-amino-2-[[2-[4-(5,5-dimethylhexoxy)phenyl]-4,6-dimethyl-pyrimidine-5-carbonyl]amino]butanoyl]amino]-10,13-dioxo-9,12-diazatricyclo[13.3.1.12,6]icosa-1(18),2(20),3,5,15(19),16-hexaene-8-carboxamide] | 0.19 µM |
| CCCCOc1c(F)c(F)c(-c2cc(C)c(C(=O)N[C@@H](CCN)C(=O)N(C)[C@@H]3C(=O)N[C@@H](C)C(=O)N[C@H](C(=O)NCC#N)Cc4ccc(OCCN)c(c4)-c4cc3ccc4OCCN)c(C)n2)c(F)c1F (racemic) [Compound 367, rac-(8S,11S,14S)-3,18-bis(2-aminoethoxy)-N-(cyanomethyl)-11-methyl-14-[methyl-[rac-(2S)-4-amino-2-[[6-(4-butoxy-2,3,5,6-tetrafluoro-phenyl)-2,4-dimethyl-pyridine-3-carbonyl]amino]butanoyl]amino]-10,13-dioxo-9,12-diazatricyclo[13.3.1.12,6]icosa-1(18),2(20),3,5,15(19),16-hexaene-8-carboxamide] | 0.5 µM |
| Cc1cc(-c2ccc(C(C)(C)C)cc2)cc(N)c1C(=O)N[C@@H](CCN)C(=O)N(C)[C@@H]1C(=O)N[C@@H](C)C(=O)N[C@H](C(=O)NCC#N)Cc2ccc(OCCN)c(c2)-c2cc1ccc2OCCN (racemic) [Compound 373, rac-(8S,11S,14S)-3,18-bis(2-aminoethoxy)-N-(cyanomethyl)-11-methyl-14-[methyl-[rac-(2S)-4-amino-2-[[2-amino-4-(4-tert-butylphenyl)-6-methyl-benzoyl]amino]butanoyl]amino]-10,13-dioxo-9,12-diazatricyclo[13.3.1.12,6]icosa-1(18),2(20),3,5,15(19),16-hexaene-8-carboxamide] | 0.13 µM |

Same assay, conditions: Escherichia coli, ATCC25922, Table 6, cation adjusted Mueller Hinton Broth + 0.002% Tween-80, 35° C., 22 hours

| Structure (SMILES) | MIC |
| --- | --- |
| CCC1(Oc2ccc(-c3nc(C)c(C(=O)N[C@@H](CCN)C(=O)N(C)[C@@H]4C(=O)N[C@@H](C)C(=O)N[C@H](C(=O)NCC#N)Cc5ccc(OCCN)c(c5)-c5cc4ccc5OCCN)c(C)n3)cc2)CC1 (racemic) [Compound 345, rac-(8S,11S,14S)-3,18-bis(2-aminoethoxy)-N-(cyanomethyl)-11-methyl-14-[methyl-[rac-(2S)-4-amino-2-[[2-[4-(1-ethylcyclopropoxy)phenyl]-4,6-dimethyl-pyrimidine-5-carbonyl]amino]butanoyl]amino]-10,13-dioxo-9,12-diazatricyclo[13.3.1.12,6]icosa-1(18),2(20),3,5,15(19),16-hexaene-8-carboxamide] | 0.25 µM |
| Cc1nc(Oc2ccc(C(C)(C)C)cc2)nc(C)c1C(=O)N[C@@H](CCN)C(=O)N(C)[C@@H]1C(=O)N[C@@H](C)C(=O)N[C@H](C(=O)NCC#N)Cc2ccc(OCCN)c(c2)-c2cc1ccc2OCCN (racemic) [Compound 353, rac-(8S,11S,14S)-3,18-bis(2-aminoethoxy)-N-(cyanomethyl)-11-methyl-14-[methyl-[rac-(2S)-4-amino-2-[[2-(4-tert-butylphenoxy)-4,6-dimethyl-pyrimidine-5-carbonyl]amino]butanoyl]amino]-10,13-dioxo-9,12-diazatricyclo[13.3.1.12,6]icosa-1(18),2(20),3,5,15(19),16-hexaene-8-carboxamide] | 2 µM |
| Cc1cc(-c2ccc(C(C)(C)C)cc2)nc(C)c1C(=O)N[C@@H](CCN)C(=O)N(C)[C@@H]1C(=O)N[C@@H](C)C(=O)N[C@H](C(=O)NCC#N)Cc2ccc(OCCN)c(c2)-c2cc1ccc2OCCN (racemic) [Compound 358, rac-(8S,11S,14S)-3,18-bis(2-aminoethoxy)-N-(cyanomethyl)-11-methyl-14-[methyl-[rac-(2S)-4-amino-2-[[6-(4-tert-butylphenyl)-2,4-dimethyl-pyridine-3-carbonyl]amino]butanoyl]amino]-10,13-dioxo-9,12-diazatricyclo[13.3.1.12,6]icosa-1(18),2(20),3,5,15(19),16-hexaene-8-carboxamide] | 0.2 µM |
| CCCCc1ccc(-c2cc(C)c(C(=O)N[C@@H](CCN)C(=O)N(C)[C@@H]3C(=O)N[C@@H](C)C(=O)N[C@H](C(=O)NCC#N)Cc4ccc(OCCN)c(c4)-c4cc3ccc4OCCN)c(C)n2)nc1 (racemic) [Compound 365, rac-(8S,11S,14S)-3,18-bis(2-aminoethoxy)-N-(cyanomethyl)-11-methyl-14-[methyl-[rac-(2S)-4-amino-2-[[6-(5-butyl-2-pyridyl)-2,4-dimethyl-pyridine-3-carbonyl]amino]butanoyl]amino]-10,13-dioxo-9,12-diazatricyclo[13.3.1.12,6]icosa-1(18),2(20),3,5,15(19),16-hexaene-8-carboxamide] | 0.31 µM |
| Cc1cc(-c2ccc(C(C)(C)C)cc2[N+](=O)[O-])nc(C)c1C(=O)N[C@@H](CCN)C(=O)N(C)[C@@H]1C(=O)N[C@@H](C)C(=O)N[C@H](C(=O)NCC#N)Cc2ccc(OCCN)c(c2)-c2cc1ccc2OCCN (racemic) [Compound 368, rac-(8S,11S,14S)-3,18-bis(2-aminoethoxy)-N-(cyanomethyl)-11-methyl-14-[methyl-[rac-(2S)-4-amino-2-[[6-(4-tert-butyl-2-nitro-phenyl)-2,4-dimethyl-pyridine-3-carbonyl]amino]butanoyl]amino]-10,13-dioxo-9,12-diazatricyclo[13.3.1.12,6]icosa-1(18),2(20),3,5,15(19),16-hexaene-8-carboxamide] | 0.5 µM |
| Cc1c(Oc2ccc(C(C)(C)C)cc2)ccc(C(=O)N[C@@H](CCN)C(=O)N(C)[C@@H]2C(=O)N[C@@H](C)C(=O)N[C@H](C(=O)NCC#N)Cc3ccc(OCCN)c(c3)-c3cc2ccc3OCCN)c1C (racemic) [Compound 374, rac-(8S,11S,14S)-3,18-bis(2-aminoethoxy)-N-(cyanomethyl)-11-methyl-14-[methyl-[rac-(2S)-4-amino-2-[[4-(4-tert-butylphenoxy)-2,3-dimethyl-benzoyl]amino]butanoyl]amino]-10,13-dioxo-9,12-diazatricyclo[13.3.1.12,6]icosa-1(18),2(20),3,5,15(19),16-hexaene-8-carboxamide] | 0.25 µM |
| Cc1c(C(=O)N[C@@H](CCN)C(=O)N(C)[C@@H]2C(=O)N[C@@H](C)C(=O)N[C@H](C(=O)NCC#N)Cc3ccc(OCCN)c(c3)-c3cc2ccc3OCCN)cnn(-c2ccc(C(C)(C)C)cc2)c1=O (racemic) [Compound 387, rac-(8S,11S,14S)-3,18-bis(2-aminoethoxy)-N-(cyanomethyl)-11-methyl-14-[methyl-[rac-(2S)-4-amino-2-[[1-(4-tert-butylphenyl)-5-methyl-6-oxo-pyridazine-4-carbonyl]amino]butanoyl]amino]-10,13-dioxo-9,12-diazatricyclo[13.3.1.12,6]icosa-1(18),2(20),3,5,15(19),16-hexaene-8-carboxamide] | 8 µM |
| C[C@@H]1NC(=O)[C@@H](N(C)C(=O)[C@H](CCN)NC(=O)N2CCC(c3ccc(C(C)(C)C)cc3)CC2)c2ccc(OCCN)c(c2)-c2cc(ccc2OCCN)C[C@@H](C(=O)NCC#N)NC1=O (racemic) [Compound 390, rac-(8S,11S,14S)-3,18-bis(2-aminoethoxy)-N-(cyanomethyl)-11-methyl-14-[methyl-[rac-(2S)-4-amino-2-[[4-(4-tert-butylphenyl)piperidine-1-carbonyl]amino]butanoyl]amino]-10,13-dioxo-9,12-diazatricyclo[13.3.1.12,6]icosa-1(18),2(20),3,5,15(19),16-hexaene-8-carboxamide] | 8 µM |
